This is an account of results in PMC6497546 (Molecular cancer therapeutics, 2019).

SMILES strings stand for the structures.

The experiment has as its system AR42J tumor. As to the kind of experiment: Combination efficacy study with 5-fluorouracil. In kind it is in vivo, mice. As to conditions: 5-fluorouracil alone, 15mg/kg once per week for nine weeks; post cell injection.

For `O=c1[nH]cc(F)c(=O)[nH]1` [5-fluorouracil], the median survival is given as 2.4 weeks.
